Reference: patent US20140213538A1, “LYSOPHOSPHATIDIC ACID RECEPTOR ANTAGONISTS” (InterMune, Inc., priority 2013, published 2014)

Tests used:
Format in all cases: cell-based
LPA/S1P GPCR of interest = target: T1, LPA/S1P GPCR of interest (Homo sapiens, UniProt Q92633); assay: Beta-Arrestin based assay (PathHunter)
T1 construct: host or cells: CHO
Summary of the method: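 EA Parental CHO cells (DiscoverX) were transfected with FuGENE (Roche) using CMV promoter-driven DNA constructs encoding the LPA/S1P GPCR of interest fused to a ProLink tag. Beta-arrestin recruitment in agonist mode was assessed 24-48 hrs later with PathHunter kits. Tests ran in quadruplicate in white 384 well plates, and end point luminescence was fit to a 4 parameter logistic function.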

LPA1 [1] = target: T2, LPA1 (Homo sapiens, UniProt Q92633); assay: Ca Flux LPA1 assay; set-up: the full-length cDNA for human LPA1 is obtained by PCR of the reverse transcription reaction; expressed in transfected cells
LPA1 [2] = target: T2, LPA1; assay: LPA1 Migration Assay (Oris); set-up: host or cells: primary fibroblasts (lung, dermal), HFL-1, 3T3 and CHO cells expressing LPA1R; settings: read-out: Cell Migration EC50
Summary of the method: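 Oris exclusion-zone migration of LPA1R-expressing cells (primary lung/dermal fibroblasts, HFL-1, 3T3, CHO), Cell Tracker Green-loaded and serum-starved 12-24 h, toward LPA or serum. Fixed cells in the detection zone were counted by high-content imaging, and cell number vs. concentration was fitted to a 4-parameter logistic.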

T1 sequence (Q92633 whole entry): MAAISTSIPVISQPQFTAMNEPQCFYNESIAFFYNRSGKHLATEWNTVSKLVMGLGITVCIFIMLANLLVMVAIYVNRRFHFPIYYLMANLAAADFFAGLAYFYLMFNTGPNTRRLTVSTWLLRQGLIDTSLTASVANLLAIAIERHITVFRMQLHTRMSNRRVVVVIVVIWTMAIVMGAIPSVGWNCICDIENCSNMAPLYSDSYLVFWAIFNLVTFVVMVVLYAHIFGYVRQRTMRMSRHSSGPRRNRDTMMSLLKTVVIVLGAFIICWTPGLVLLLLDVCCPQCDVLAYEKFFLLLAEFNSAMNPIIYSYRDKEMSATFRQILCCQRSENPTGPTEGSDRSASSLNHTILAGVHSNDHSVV
T2 sequence (Q92633 whole entry): as above

| EC50 (LPA/S1P GPCR of interest) | IC50 (LPA1 [1]) | EC50 (LPA1 [2]) | Structure (SMILES) |
| --- | --- | --- | --- |
| < 50 nM | < 50 nM | 50 to 500 nM | C[C@@H](OC(=O)Nc1c(-c2ccc(-c3ccc(C4(C(=O)O)CC4)s3)cc2)nnn1C)c1ccccc1 [IT236] |
| < 50 nM | 50 to 500 nM |  | CCc1nc(C(=O)O)c(Oc2ccc(-c3ccc(-c4onc(C)c4NC(=O)O[C@H](C)c4ccccc4)cc3)cc2)o1 [IT434] |
|  | < 50 nM |  | C[C@@H](OC(=O)Nc1c(C#Cc2nc3sc(C4(C(=O)O)CC4)cc3s2)cnn1C)c1ccccc1 [IT095] |
|  | 50 to 500 nM | > 500 nM | C[C@@H](OC(=O)Nc1c(C(F)(F)F)nnn1-c1ccc(-c2ccc(C3(C(=O)O)CC3)cc2)cc1)c1ccccc1 [IT072] |
|  | < 50 nM | 50 to 500 nM | Cc1noc(C#Cc2nc3sc(C4(C(=O)O)CC4)cc3s2)c1NC(=O)O[C@H](C)c1ccccc1 [IT102] |
|  | < 50 nM | 50 to 500 nM | C[C@@H](OC(=O)Nc1c(C#Cc2sc3cc(C4(C(=O)O)CC4)sc3c2C(F)(F)F)cnn1C)c1ccccc1 [IT103] |
|  | 50 to 500 nM | 50 to 500 nM | Cc1nsc(-c2ccc(-c3ccc(C4(C(=O)O)CC4)cc3)cc2)c1NC(=O)OC(c1ccccc1)C(F)(F)F (single isomer, unassigned) [IT078] |
|  | < 50 nM |  | C[C@@H](OC(=O)Nc1c(C#Cc2cc3sc(C4(C(=O)NS(C)(=O)=O)CC4)cc3s2)cnn1C)c1ccccc1 [IT098] |
| < 50 nM |  | 50 to 500 nM | C[C@@H](OC(=O)Nc1c(-c2cc3sc(-c4cc(F)c(C5(C(=O)O)CC5)cc4F)cc3s2)cnn1C)c1ccccc1 [IT347] |
| < 50 nM |  | 50 to 500 nM | Cc1cc(C2(C(=O)O)CC2)ccc1-c1cc2sc(-c3nnn(C)c3NC(=O)O[C@H](C)c3ccccc3)cc2s1 [IT291] |
| < 50 nM |  | 50 to 500 nM | C[C@@H](OC(=O)Nc1c(-c2ccc(-c3ccc(Oc4cccc(F)c4C(=O)O)cc3)cc2)cnn1C)c1ccccc1 [IT456] |
| < 50 nM |  | 50 to 500 nM | C[C@@H](OC(=O)Nc1c(-c2cc3sc(-c4ccc(C5(C(=O)O)CC5)cc4)cc3s2)nnn1C)c1ccccc1 [IT149] |
| < 50 nM |  | 50 to 500 nM | Cc1nsc(-c2cc(Cl)c(-c3cc4sc(C5(C(=O)O)CC5)cc4s3)cc2F)c1NC(=O)O[C@H](C)c1ccccc1 [IT281] |
| 50 to 500 nM |  | 50 to 500 nM | C[C@@H](OC(=O)Nc1c(C#Cc2cc(F)c(OC3(C(=O)O)CC3)c(F)c2)cnn1C)c1ccccc1 [IT311] |
|  | 50 to 500 nM | > 500 nM | Cc1nsc(-c2ccc(C3CCC(C4(C(=O)O)CC4)CC3)cc2)c1NC(=O)O[C@H](C)c1ccccc1 (some centres unmarked) [IT091] |
| > 500 nM |  | > 500 nM | Cc1nsc(-c2cc3sc(-c4ccc(CC(=O)O)s4)cc3s2)c1NC(=O)O[C@H](C)c1ccccc1 [IT148] |
| < 50 nM |  | 50 to 500 nM | Cc1noc(-c2ccc(-c3ccc(Oc4nccnc4C(=O)O)cc3)cc2)c1NC(=O)O[C@H](C)c1ccccc1 [IT232] |
| > 500 nM |  | > 500 nM | Cc1noc(-c2ccc(-c3ccc(S(=O)(=O)N4CCCC4)cc3)cc2)c1NC(=O)O[C@H](C)c1ccccc1 [IT153] |
| < 50 nM |  | 50 to 500 nM | C[C@@H](OC(=O)Nc1c(-c2cc3sc(-c4ccc(C5(C(=O)O)CC5)c(F)c4F)cc3s2)nnn1C)c1ccccc1 [IT365] |
| 50 to 500 nM |  | > 500 nM | C[C@@H](OC(=O)Nc1c(-c2cc3sc(-c4ccc(CC(=O)O)cc4)cc3s2)cnn1C)c1ccccc1 [IT132] |
| < 50 nM |  | 50 to 500 nM | C[C@@H](OC(=O)Nc1c(-c2cc3sc(-c4ccc5scc(CC(=O)O)c5c4)cc3s2)nnn1C)c1ccccc1 [IT336] |
| 50 to 500 nM |  | 50 to 500 nM | C[C@@H](OC(=O)Nc1c(-c2cc3sc(-c4cc(F)c(CC(=O)O)c(F)c4)cc3s2)nnn1C)c1ccccc1 [IT158] |
| < 50 nM |  | 50 to 500 nM | C[C@@H](OC(=O)Nc1c(-c2cc3sc(-c4ccc(C5(C(=O)O)CC5)nc4)cc3s2)nnn1C)c1ccccc1 [IT270] |
| 50 to 500 nM |  | 50 to 500 nM | C[C@@H](OC(=O)Nc1c(-c2cc3sc(-c4ccc(CC(=O)O)cc4)cc3s2)nnn1C)c1ccccc1 [IT160] |
